Values quoted from earlier work, collected in patent US20110144198A1, “BREAST CANCER PROGNOSTICS” (ATLAS ANTIBODIES AB, priority 2008, published 2011).

Tests used:
[1] = test system: ERα+/PR− tumors; conditions: follow-up period of 6 years
[2] = test system: ERα positive (ERα+) patients

| Compound | recurrence rate compared to patients treated with tamoxifen [1] | fraction of ERα+ patients that do not respond to treatment [2] |
| --- | --- | --- |
| CC(C)(C#N)c1cc(Cn2cncn2)cc(C(C)(C)C#N)c1 [anastrozole] | halved |  |
| CC/C(=C(\c1ccccc1)c1ccc(OCCN(C)C)cc1)c1ccccc1 [tamoxifen] |  | 30-40% |
